In patent publication US20240208998A1, “COMPOUNDS FOR USE IN THE TREATMENT OF HYPERPROLIFERATIVE DISORDERS” (FUNDACIÓ PRIVADA INSTITUT D'INVESTIGACIÓ ONCOLÓGICA DE VALL …, priority 2021, published 2024):

What was measured:
Type in all cases: cell-based
[1] = system: HCT116 (colon); test: Antiproliferative activity on other tumour cell lines (CellTiter-Glo): HCT116; conditions: Homo sapiens; HCT 116, 72 h of treatment
Protocol: (§1) Other human adherent cancer cell lines were cultured in their corresponding cell medium (as specified in Table 4) supplemented with 10% FBS (v/v) and 1% P/S (v/v). Twenty-four hours prior to treatment with the compounds to be tested (Examples 1, 12 and 21), the cells were seeded in 96-well plates at different densities depending of the cell line (as specified in Table 4).
(§2) Depending on the cell line, a 50, 125 or 250 μM solution of the compounds of examples 1, 12 and 21 were prepared in complete medium, and then serially diluted (1:2) (Table 5). A solution of complete medium with DMSO was used as a vehicle control.
(§3) Fifty microliters of each serially diluted compound solution was added by medium replacement in two wells (by duplicate). After 48 h of treatment, 50 μL of fresh 2X serially diluted compound solution was added to the corresponding wells of the plate (100 μL of final volume/well). After twenty-four additional hours (a total of 72 h of treatment), an equal volume (100 μL) of CellTiter-Glo Reagent (Promega) was added to each well, plates were shaken during 2 min and incubated at rt for 10 min. Luminescence was recorded using a Spark multimode microplate reader and an integration time of 1 s per well.

[2] = system: MDA-MB-468 (breast); test: Antiproliferative activity on other tumour cell lines (CellTiter-Glo): MDA-MB-468; conditions: Homo sapiens, MD-MB-468, 72 h of treatment
Protocol: as §1, §2, §3

[3] = system: T98G (glioblastoma); test: Antiproliferative activity on other tumour cell lines (CellTiter-Glo): T98G; conditions: Homo sapiens, 72 h of treatment
Protocol: as §1, §2, §3

[4] = system: LN229 (glioblastoma); test: Antiproliferative activity on other tumour cell lines (CellTiter-Glo): LN229; conditions: Homo sapiens, LN-229; LN229, 72 h of treatment
Protocol: as §1, §2, §3

[5] = system: Hop62 (lung); test: Antiproliferative activity on other tumour cell lines (CellTiter-Glo): Hop62; conditions: Homo sapiens, HOP-62; Hop62, 72 h of treatment
Protocol: as §1, §2, §3

Compound	EC50 [1] [µM]	EC50 [2] [µM]	EC50 [3] [µM]	EC50 [4] [µM]	EC50 [5] [µM]
Cc1[nH]c2ccccc2c1-c1csc(NC(=O)Cc2c[nH]c3ccc(F)cc23)n1 [Example 12, 2-(5-fluoro-1H-indol-3-yl)-N-[4-(2-methyl-1H-indol-3-yl)thiazol-2-yl]acetamide]	6.8	10.1	23.1	5.9	12.1
Cc1[nH]c2ccccc2c1-c1csc(NC(=O)Cc2c[nH]c3ccc(O)cc23)n1 [Example 21, 2-(5-hydroxy-1H-indol-3-yl)-N-[4-(2-methyl-1H-indol-3-yl)thiazol-2-yl]acetamide]	16.4	9.2	11.4	3.3	81.6
